Reference: patent US12325709B2, “Cannabinoid derivatives” (CANOPY GROWTH CORPORATION, priority 2019, dated 2025)

Experiments:
human CB2 receptor = target: T1, human CB2 receptor (Homo sapiens, UniProt P34972); test: CB2 radioligand competitive binding assay ([3H]CP 55,940 displacement); conditions: for Selectivity CB2: fold difference in binding between CB1 and CB2, shown in column of receptor with higher affinity, 1.00 in both = about the same affinity
T1 construct: host or cells: CHO-K1 (Chinese hamster ovary) cells, stably transfected; membranes prepared in house
T1 sequence (P34972 whole entry): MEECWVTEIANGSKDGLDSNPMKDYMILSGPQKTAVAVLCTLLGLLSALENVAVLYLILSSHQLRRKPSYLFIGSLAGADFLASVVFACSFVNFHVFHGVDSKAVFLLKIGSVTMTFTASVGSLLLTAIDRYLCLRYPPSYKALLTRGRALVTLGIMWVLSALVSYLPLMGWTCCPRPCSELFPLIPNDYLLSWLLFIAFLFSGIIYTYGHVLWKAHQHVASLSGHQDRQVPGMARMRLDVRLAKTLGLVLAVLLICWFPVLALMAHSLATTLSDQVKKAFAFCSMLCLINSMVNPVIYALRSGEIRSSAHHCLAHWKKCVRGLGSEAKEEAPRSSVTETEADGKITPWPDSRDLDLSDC
Protocol: Compounds of the present disclosure were tested for CB1 receptor binding affinity and for CB2 receptor binding affinity. As used herein, “binding affinity” is represented by the IC50 value, which was experimentally determined as described herein. The lower the IC50 value the higher the binding affinity.
The membranes were prepared from CHO-K1 (Chinese hamster ovary) cells stably transfected with the human CB2 receptor (Cat. #ES-111-C; Perkin Elmer, Boston, MA). The cells were grown adherently and maintained in Ham's F12 medium containing 10% fetal bovine serum (FBS), penicillin, streptomycin and geneticin (G418) at 37° C. in a humid atmosphere of 5% CO2 following the manufacturer's instructions.
For membrane preparation the cells were washed with PBS and scraped off the plates in cold homogenization buffer (25 mM HEPES (pH 7.4), 2 mM EDTA) containing protease inhibitor cocktail (Sigma Cat. #P8340). The cell suspension was homogenized with a Pro-PK-01200D Polytron Homogenizer (Pro Scientific) and then centrifuged for 30 min at 120,000×g. The supernatant was discarded and the pellet was re-suspended in the homogenization buffer and stored at −80° C. until the time of use.
In this experiment, 3H radiolabeled CP 55,940, i.e. [3H]CP 55,940 (Perkin Elmer, Boston, MA), was used as a radioligand for the CB2 receptor to determine the binding affinity of compounds for the CB2 receptor (Scheme 3; above).
The competition binding experiments (single dose and dose-response) were performed by incubating 0.6 nM of [3H]CP55,940 (specific activity 101 Ci/mmol, Perkin Elmer) and different concentrations of compounds disclosed herein with membranes prepared as above from CHO-K1 cells expressing human CB2 receptor (1 μg of protein/well), 50 mM Tris-HCl (pH 7.4), 5 mM MgCl2, 1 mM CaCl2, and 2 mg/mL BSA.
For the dose-response experiments the test compounds were sequentially diluted to provide the desired concentration range for the IC50 determination. In each case the compounds were pre-incubated with the membrane for 20 min, before adding the radioligand.
After incubation with the radioligand for 60 min at 37° C., the incubation was terminated by rapid filtration of assay mixture through MultiScreen®HTS^+ 96-well filter plates (Millipore, Cat. #MSFCNXB), pre-soaked for 60 min with 50 mM Tris-HCl (pH 7.4) containing 0.33% polyethylenimine (PEI). The nonspecific binding (NSB) was determined in the presence of 10 μM unlabelled CP55,940. After drying the filter plate at 50° C. for at least 60 min, the filter-bound radioactivity was determined by scintillation spectrometry using the 1450 MicroBeta Plate Counter (Perkin Elmer, Boston, MA).

human CB1 receptor = target: T2, human CB1 receptor (Homo sapiens, UniProt P21554); test: CB1 radioligand competitive binding assay ([3H]CP 55,940 displacement); conditions: for Selectivity CB1: fold difference in binding between CB1 and CB2, shown in column of receptor with higher affinity, 1.00 in both = about the same affinity
T2 construct: host or cells: CHO-K1 (Chinese hamster ovary) cells, stably transfected; membranes prepared in house
T2 sequence (P21554 whole entry): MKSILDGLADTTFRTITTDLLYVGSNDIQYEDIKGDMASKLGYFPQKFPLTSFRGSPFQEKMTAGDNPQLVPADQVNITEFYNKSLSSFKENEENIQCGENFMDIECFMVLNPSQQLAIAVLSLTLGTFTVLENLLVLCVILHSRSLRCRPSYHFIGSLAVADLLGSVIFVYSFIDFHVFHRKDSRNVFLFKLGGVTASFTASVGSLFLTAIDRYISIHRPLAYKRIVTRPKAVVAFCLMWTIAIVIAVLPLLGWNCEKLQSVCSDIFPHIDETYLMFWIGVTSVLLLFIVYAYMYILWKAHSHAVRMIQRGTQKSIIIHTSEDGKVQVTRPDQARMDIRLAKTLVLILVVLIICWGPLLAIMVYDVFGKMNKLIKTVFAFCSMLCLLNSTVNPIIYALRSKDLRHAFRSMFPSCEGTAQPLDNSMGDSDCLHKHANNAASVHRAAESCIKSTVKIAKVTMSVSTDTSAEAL

SMILES | IC50 (human CB2 receptor) | Selectivity CB2 (human CB2 receptor) | IC50 (human CB1 receptor) | Selectivity CB1 (human CB1 receptor)
CCCCCc1cc(O)c(C2C=C(C)CCC2)c(O)c1C(=O)NCc1cccnc1 (stereo not shown) [Compound 15c, 2,6-dihydroxy-5′-methyl-4-pentyl-N-(pyridin-3-ylmethyl)-1′,2′,3′,4′-tetrahydro-[1,1′-biphenyl]-3-carboxamide] | < 0.1 µM | 23.17 fold | 1 to 4.99 µM | 
C=C(C)[C@@H]1CCC(C)=C[C@H]1c1c(O)cc(CCCCC)c(C(=O)NCc2cccnc2)c1O [Compound 15d, 2,6-dihydroxy-5′-methyl-4-pentyl-2′-(prop-1-en-2-yl)-N-(pyridin-3-ylmethyl)-1′,2′,3′,4′-tetrahydro-[1,1′-biphenyl]-3-carboxamide] | 0.1 to 0.99 µM |  | 0.1 to 0.99 µM | 2.48 fold
C=CCNC(=O)c1c(CCCCC)cc(O)c(C2C=C(C)CCC2)c1O (stereo not shown) [Compound 25c, N-allyl-2,6-dihydroxy-5′-methyl-4-pentyl-1′,2′,3′,4′-tetrahydro-[1,1′-biphenyl]-3-carboxamide] | 0.1 to 0.99 µM | 16.53 fold | 1 to 4.99 µM | 
CCCCCc1cc(O)c(C2C=C(C)CCC2)c(O)c1C(=O)N1CCn2cnnc2C1 (stereo not shown) [Compound 34c, (5,6-dihydro-[1,2,4]triazolo[4,3-a]pyrazin-7(8H)-yl)(2,6-dihydroxy-5′-methyl-4-pentyl-1′,2′,3′,4′-tetrahydro-[1,1′-biphenyl]-3-yl)methanone] | > 5 µM | 1.00 fold | > 5 µM | 1.00 fold
CCCCCc1cc(O)c(C2C=C(C)CCC2)c(O)c1C(=O)N1CCN(S(C)(=O)=O)CC1 (stereo not shown) [Compound 37c, (2,6-dihydroxy-5′-methyl-4-pentyl-1′,2′,3′,4′-tetrahydro-[1,1′-biphenyl]-3-yl)(4-(methylsulfonyl)piperazin-1-yl)methanone] | 0.1 to 0.99 µM | 66.67 fold | > 5 µM | 
CCCCCc1cc(O)c(-c2cccc(C)c2)c(O)c1C(=O)N1CCOCC1 [Compound 39a, (2,6-dihydroxy-3′-methyl-4-pentyl-[1,1′-biphenyl]-3-yl)(morpholino)methanone] | > 5 µM | 3.70 fold | > 5 µM | 
CCCCCc1cc(O)c(C2C=C(C)CCC2)c(O)c1C(=O)N1CCOCC1 (stereo not shown) [Compound 39c, (2,6-dihydroxy-5′-methyl-4-pentyl-1′,2′,3′,4′-tetrahydro-[1,1′-biphenyl]-3-yl)(morpholino)methanone] | 1 to 4.99 µM | 3.20 fold | 1 to 4.99 µM | 
C=C(C)[C@@H]1CCC(C)=C[C@H]1c1c(O)cc(CCCCC)c(C(=O)N2CCOCC2)c1O [Compound 39d, (2,6-dihydroxy-5′-methyl-4-pentyl-2′-(prop-1-en-2-yl)-1′,2′,3′,4′-tetrahydro-[1,1′-biphenyl]-3-yl)(morpholino)methanone] | 1 to 4.99 µM | 3.49 fold | > 5 µM | 
CCCCCc1cc(O)c(C2C=C(C)CCC2)c(O)c1C(=O)N1CCCC1 (stereo not shown) [Compound 41c, (2,6-dihydroxy-5′-methyl-4-pentyl-1′,2′,3′,4′-tetrahydro-[1,1′-biphenyl]-3-yl)(pyrrolidin-1-yl)methanone] | 1 to 4.99 µM | 13.31 fold | > 5 µM | 
CCCCCc1cc(O)c(C2C=C(C)CCC2)c(O)c1C(=O)NCc1ccccc1Br (stereo not shown) [Compound 57c, N-(2-bromobenzyl)-2,6-dihydroxy-5′-methyl-4-pentyl-1′,2′,3′,4′-tetrahydro-[1,1′-biphenyl]-3-carboxamide] | < 0.1 µM | 21.67 fold | 1 to 4.99 µM | 
CCCCCc1cc(O)c(C2C=C(C)CCC2)c(O)c1C(N)=O (stereo not shown) [Compound 58c, 2,6-dihydroxy-5′-methyl-4-pentyl-1′,2′,3′,4′-tetrahydro-[1,1′-biphenyl]-3-carboxamide] | 1 to 4.99 µM | 11.83 fold | > 5 µM | 
